Measured values from patent publication US9409952B2, “Peptide-compound cyclization method” (Chugai Seiyaku Kabushiki Kaisha, priority 2011, dated 2016).
Where two headings read alike, the source gives them in different places. Starred links: 1 amine or outer side, 2 acyl side, 3 side chain; linkers in the order of their positions; H or OH if unused. Positions of bridges follow the written chain, without caps; N, C: chain ends. Non-standard residues stand in square brackets, D forms with d. Residues, ends and D or L forms follow the SMILES beside them. *: point of attachment. Phe(4-(CH2)5CO) = O=C([C@H](Cc1ccc(CCCCCC(=O)[*:3])cc1)N[*:1])[*:2]; Ala(1H-tetrazol-5-yl) = N[C@@H](Cc1nnn[nH]1)C(=O)O; hhPhe = N[C@@H](CCCc1ccccc1)C(=O)O; NMeF = CN[C@@H](Cc1ccccc1)C(=O)O; NMeGABA = CN(CCCC(=O)[*:2])[*:1]; NMeI = CC[C@H](C)[C@H](NC)C(=O)O; NMeβAla = CN(CCC(=O)[*:2])[*:1]; Aoc(2) = CCCCCC[C@H](N)C(=O)O; NMeL = CN[C@@H](CC(C)C)C(=O)O; NMeV = CN[C@H](C(=O)O)C(C)C; NMeS = CN[C@@H](CO)C(=O)O; NMeA = CN[C@@H](C)C(=O)O; Piperidide = C1CCN(*)CC1; dNMeA = CN[C@H](C)C(=O)O; β3hA = C[C@H](N)CC(=O)O; Abu = CC[C@H](N)C(=O)O; Sar = CNCC(=O)O; tBu = CC(C)(C)*

Experiments:
[1] = PAMPA (parallel artificial membrane permeability assay); type: in vitro ADME; conditions: PAMPA
Summary of the method: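 Artificial membrane was 10% (w/v) egg lecithin plus 0.5% (w/v) cholesterol in dodecane on a PVDF filter. A 10 mM DMSO stock was added at 0.5% (v/v) to donor buffer (50 mM MOPSO, pH 6.5, 5.0% glycocholic acid). After 18 h at 37 °C, LC/MS or LC/UV gave donor and acceptor levels for Pe.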

[2] = Metabolic stability in human hepatic microsome; type: in vitro ADME; conditions: microsomes
[3] = membrane permeation rate (Pe), 50 mM MOPSO buffer pH 6.5 with 5.0% glycocholic acid, 37° C., 18 hours, read-out: iPAMPA Pe
[4] = pH 7.4, human hepatic microsome, NADPH(+), read-out: CL NADPH(+)

SMILES | Papp at 18 hours, 50 µM ([1]; pH 6.5) [×10⁻⁶ cm/s] | microsomal CLint at 1 uM ([2]; human, pH 7.4, CL NADPH(+)) [µL/min/mg] | Papp at 18 hours, 50 µM [1, 3] [×10⁻⁶ cm/s] | microsomal CLint at 1 uM [2, 4] [µL/min/mg]
CC[C@H](C)[C@H](NC(=O)[C@H](C)N(C)C(=O)[C@@H]1CC(=O)N[C@@H](C)C(=O)N[C@@H]([C@@H](C)CC)C(=O)N(C)[C@@H](C)C(=O)N(C)[C@@H](Cc2ccccc2)C(=O)N[C@@H]([C@@H](C)O)C(=O)N(C)[C@@H](Cc2ccccc2)C(=O)N[C@@H](CC(C)C)C(=O)N2CCC[C@H]2C(=O)N1)C(=O)N1CCCCC1 [DP-668] (AI[NMeA][NMeF]T[NMeF]LPD[NMeA]I-Piperidide; lactam N-9) | 26 | 142 |  | 
CC(C)C[C@@H]1NC(=O)[C@H](CC(C)C)N(C)C(=O)C[C@@H](C(=O)N2CCCCC2)NC(=O)[C@H](CC(C)C)N(C)C(=O)[C@H](CC(C)C)N(C)C(=O)[C@H](Cc2nn[nH]n2)NC(=O)[C@H](CC(C)C)N(C)C(=O)[C@H](Cc2ccccc2)N(C)C(=O)[C@H](CC(C)C)NC(=O)[C@H](Cc2ccccc2)N(C)C(=O)[C@H](CC(C)C)N(C)C1=O [DP-908] ([NMeL]L[NMeL][NMeF]L[NMeF][NMeL][Ala(1H-tetrazol-5-yl)][NMeL][NMeL]D-Piperidide; lactam N-11) |  |  | 1.6 | 3
CC[C@H](C)[C@@H]1NC(=O)[C@H](CC(C)C)N(C)C(=O)CN(C)C(=O)[C@H]([C@@H](C)O)NC(=O)[C@H](CC(C)C)N(C)C(=O)[C@H](Cc2ccccc2)N(C)C(=O)[C@H](C)N(C)C(=O)[C@@H](C)NC(=O)C[C@@H](C(=O)N(C)[C@@H](Cc2ccccc2)C(=O)N[C@@H](C)C(=O)N2CCCCC2)NC(=O)[C@H](C(C)C)N(C)C1=O [DP-290] ([dA][NMeA][NMeF][NMeL]T[Sar][NMeL]I[NMeV]D[NMeF]A-Piperidide; lactam N-10) |  |  | 19 | 23
CC[C@H](C)[C@H]1C(=O)N(C)[C@@H](Cc2ccccc2)C(=O)N[C@@H]([C@@H](C)O)C(=O)N(C)[C@@H](C)C(=O)N(C)[C@@H](C(C)C)C(=O)N(C)[C@@H](CC(C)C)C(=O)N[C@@H](C)C(=O)N[C@H](C(=O)N2CCCCC2)CC(=O)N(C)CCC(=O)N[C@@H](Cc2ccccc2)C(=O)N(C)[C@@H](CC(C)C)C(=O)N1C [DP-241] ([NMeβAla]F[NMeL][NMeI][NMeF]T[NMeA][NMeV][NMeL]AD-Piperidide; lactam N-11) |  |  | 26 | 30
CC[C@H](C)[C@H]1C(=O)N[C@H](C(=O)N2CCCCC2)CC(=O)N(C)[C@H](C)C(=O)N(C)[C@@H](Cc2ccccc2)C(=O)N(C)[C@@H](CC(C)C)C(=O)N[C@@H]([C@@H](C)O)C(=O)N(C)CC(=O)N[C@@H](COC(C)(C)C)C(=O)N(C)[C@@H](CC(C)C)C(=O)N1C [DP-81] ([dNMeA][NMeF][NMeL]T[Sar]S(tBu)[NMeL][NMeI]D-Piperidide; lactam N-9) | 25 | 38 |  | 
CC(C)C[C@H]1C(=O)N(C)[C@@H](C)C(=O)N[C@H](C(=O)N(C)[C@@H](Cc2ccccc2)C(=O)N[C@@H](C)C(=O)N2CCCCC2)CC(=O)N(C)[C@@H](C)C(=O)N(C)[C@@H](Cc2ccccc2)C(=O)N(C)[C@@H](C)C(=O)N[C@@H]([C@@H](C)O)C(=O)N(C)[C@@H](C)C(=O)N[C@@H](C(C)C)C(=O)N1C [DP-357] ([NMeA][NMeF][NMeA]T[NMeA]V[NMeL][NMeA]D[NMeF]A-Piperidide; lactam N-9) |  |  | 14 | 56
CC(C)C[C@@H]1NC(=O)[C@H](Cc2ccccc2)N(C)C(=O)[C@@H](C(C)C)NC(=O)C[C@@H](C(=O)N2CCCCC2)NC(=O)[C@H](Cc2ccccc2)NC(=O)[C@H](CC(C)C)N(C)C(=O)[C@H]([C@@H](C)O)NC(=O)[C@H](CC(C)C)N(C)C1=O [DP-703] ([dV][NMeF]L[NMeL]T[NMeL]FD-Piperidide; lactam N-8) |  |  | 34 | 222
CC(C)C[C@H]1C(=O)N(C)[C@@H](CC(C)C)C(=O)N[C@@H](C)C(=O)N(C)[C@@H](CC(C)C)C(=O)N(C)[C@@H](Cc2ccccc2)C(=O)N(C)[C@@H](Cc2ccccc2)C(=O)N[C@@H]([C@@H](C)O)C(=O)N(C)[C@@H](C)C(=O)N(C)[C@@H](CC(C)C)C(=O)N[C@H](C(=O)N2CCCCC2)Cc2ccc(cc2)CCCCCC(=O)N1C [DP-858] ([NMeL][NMeL]A[NMeL][NMeF][NMeF]T[NMeA][NMeL][Phe(4-(CH2)5CO)]-Piperidide; lactam N-10) |  |  | 1 | 77
CC(C)C[C@H]1C(=O)N(C)[C@@H](Cc2ccccc2)C(=O)NCC(=O)N(C)[C@@H](Cc2ccccc2)C(=O)N(C)[C@@H](C)C(=O)N[C@@H]([C@@H](C)O)C(=O)N[C@H](C(=O)N(C)[C@@H](Cc2ccccc2)C(=O)N(C)[C@@H](Cc2ccccc2)C(=O)N[C@@H](C)C(=O)N2CCCCC2)CC(=O)N(C)[C@H](C)C(=O)N[C@@H](C(C)C)C(=O)N1C [DP-213] ([dNMeA]V[NMeL][NMeF]G[NMeF][NMeA]TD[NMeF][NMeF]A-Piperidide; lactam N-9) |  |  | 55 | 71
CC(C)C[C@@H]1NC(=O)C[C@H](C)NC(=O)[C@H](C(C)C)NC(=O)[C@H](CC(C)C)N(C)C(=O)CN(C)C(=O)[C@H](CC(C)C)NC(=O)[C@H](CO)N(C)C(=O)[C@H](CC(C)C)N(C)C(=O)[C@H](CC(C)C)N(C)C(=O)[C@H](CC(C)C)N(C)C(=O)[C@@H](CC(C)C)NC1=O [DP-643] (cyclo(L[Sar][NMeL]V[β3hA]L[dL][NMeL][NMeL][NMeL][NMeS])) |  |  | 29 | 24
CC[C@H](C)[C@@H]1NC(=O)[C@H](Cc2ccccc2)N(C)C(=O)[C@H](CCCc2ccccc2)NC(=O)[C@H](C(C)C)N(C)C(=O)[C@H](CC(C)C)N(C)C(=O)[C@H](CC(C)C)NC(=O)[C@@H](C)NC(=O)C[C@@H](C(=O)N2CCCCC2)NC(=O)[C@H]([C@@H](C)O)NC(=O)[C@H](C)NC(=O)[C@H](C)N(C)C1=O [DP-731] ([dA]L[NMeL][NMeV][hhPhe][NMeF]I[NMeA]ATD-Piperidide; lactam N-11) |  |  | 48 | 53
CC[C@H](C)[C@H]1C(=O)NCC(=O)N(C)[C@@H](Cc2ccccc2)C(=O)N[C@@H]([C@@H](C)O)C(=O)N(C)[C@@H](C)C(=O)N[C@@H](CC(C)C)C(=O)N[C@@H](C)CC(=O)N(C)[C@H](C)C(=O)N(C)[C@@H](C)C(=O)N[C@@H](Cc2ccccc2)C(=O)N(C)[C@@H](CC(C)C)C(=O)N[C@@H](C(C)C)C(=O)N1C [DP-755] (cyclo(F[NMeL]V[NMeI]G[NMeF]T[NMeA]L[β3hA][dNMeA][NMeA])) |  |  | 36 | 144
CC(C)C[C@H]1C(=O)NCC(=O)N(C)[C@@H](Cc2ccccc2)C(=O)N(C)[C@@H](C(C)C)C(=O)N[C@@H]([C@@H](C)O)C(=O)N[C@H](C(=O)N(C)[C@@H](Cc2ccccc2)C(=O)N(C)[C@@H](Cc2ccccc2)C(=O)N[C@@H](C)C(=O)N2CCCCC2)CC(=O)N(C)CC(=O)N[C@@H](C(C)C)C(=O)N(C)[C@@H](CC(C)C)C(=O)N[C@@H](Cc2ccccc2)C(=O)N1C [DP-303] ([Sar]V[NMeL]F[NMeL]G[NMeF][NMeV]TD[NMeF][NMeF]A-Piperidide; lactam N-10) | 1.2 | 27 |  | 
CC(C)C[C@H]1C(=O)N(C)[C@@H](CC(C)C)C(=O)N[C@H](C(=O)N(C)[C@@H](Cc2ccccc2)C(=O)N[C@@H](C)C(=O)N2CCCCC2)CC(=O)N(C)CCC(=O)N(C)[C@@H](C)C(=O)N(C)[C@@H](CC(C)C)C(=O)N[C@@H]([C@@H](C)O)C(=O)N(C)[C@@H](Cc2ccccc2)C(=O)N[C@@H](C(C)C)C(=O)N(C)CC(=O)N1C [DP-194] ([NMeβAla][NMeA][NMeL]T[NMeF]V[Sar][NMeL][NMeL]D[NMeF]A-Piperidide; lactam N-10) |  |  | 22 | 72
CC(C)C[C@@H]1NC(=O)[C@@H](C(C)C)NC(=O)C[C@@H](C(=O)N2CCCCC2)NC(=O)[C@H](Cc2ccccc2)NC(=O)[C@H](CC(C)C)N(C)C(=O)[C@H](Cc2ccccc2)N(C)C(=O)[C@H](C)N(C)C(=O)[C@H]([C@@H](C)O)NC1=O [DP-702] ([dV]LT[NMeA][NMeF][NMeL]FD-Piperidide; lactam N-8) |  |  | 25 | 123
CCCCCC[C@@H]1NC(=O)[C@H](CC(C)C)N(C)C(=O)C[C@H](C)NC(=O)[C@H](CC)NC(=O)[C@H](CO)N(C)C(=O)[C@H](CC(C)C)N(C)C(=O)[C@H](CC(C)C)N(C)C(=O)[C@H](CC(C)C)N(C)C(=O)[C@@H](C)NC(=O)[C@H](C)NC(=O)[C@H](CC(C)C)N(C)C1=O [DP-646] (cyclo(A[dA][NMeL][NMeL][NMeL][NMeS][Abu][β3hA][NMeL][Aoc(2)][NMeL])) |  |  | 29 | 139
CC[C@H](C)[C@@H]1NC(=O)CCCN(C)C(=O)C[C@@H](C(=O)N(C)[C@@H](Cc2ccccc2)C(=O)N(C)[C@@H](Cc2ccccc2)C(=O)N[C@@H](C)C(=O)N2CCCCC2)NC(=O)[C@H](C(C)C)N(C)C(=O)[C@H](CC(C)C)N(C)C(=O)[C@H](C)NC(=O)CN(C)C(=O)[C@H]([C@@H](C)O)NC(=O)[C@H](Cc2ccccc2)N(C)C(=O)[C@H](C)N(C)C1=O [DP-392] ([NMeGABA]I[NMeA][NMeF]T[Sar]A[NMeL][NMeV]D[NMeF][NMeF]A-Piperidide; lactam N-10) |  |  | 20 | 18
